Assay [1] has as its system vascular endothelial growth factor (VEGF). As to the kind of experiment: VEGF expression in conditioned media, QUANTIKINE immunoassay. It counts as cell-based, human. Particulars: HFF, 293A and Hep3B cells. The protocol:
When cell layers reached confluence, the media was replaced with OPTI-MEM media (Invitrogen Life Technologies, Carlsbad Calif.) and cell layers were incubated for approximately 24 hours in 20% O2, 5% CO2 at 37° C. Compound of the invention (one of compounds A to O) or DMSO (0.5 to 1%) was then added to existing medium, and incubation was continued overnight.
Conditioned media collected from cell cultures grown as in Example 1 was analyzed for vascular endothelial growth factor (VEGF) expression using a QUANTIKINE immunoassay (R&D Systems) according to the manufacturer's instructions. […] Values on the y-axis represent fold-induction relative to control and are reported on a log2 scale, such that a value of 1 represents 2-fold induction.

The test system of assay [2] is vascular endothelial growth factor (VEGF) gene expression. As to the kind of experiment: VEGF gene expression in liver and kidney, quantitative PCR. It counts as in vivo. Particulars: mouse, 200 mg/kg/day oral gavage, 2.5 days, four hours after final dose.
Experimental: Four hours after the final dose, animals were anesthetized with isoflurane and a blood sample was collected from the abdominal vein. […] The mice were then sacrificed and approximately 150 mg of liver and each kidney were isolated and stored in [sequence] solution (Ambion) at −20° C.
RNA isolation was carried out using the following protocol. Tissue slices were cut into small pieces, 1.75 ml of RLT lysis buffer (RNEASY kit; Qiagen) was added, and the pieces were homogenized for about 20 seconds using a rotor-stator POLYTRON homogenizer (Kinematica, Inc., Cincinnati Ohio). […] The RNA was eluted into 80 μL of water and quantitated with RIBOGREEN reagent (Molecular Probes, Eugene Oreg.). […] The absorbance at 260 and 280 nm was measured to determine RNA purity and concentration.
cDNA synthesis was performed using 1W random hexamer primers, 1 μg of total RNA, and OMNISCRIPT reverse transcriptase (Qiagen), according to the manufacturer's instructions. […] Analysis of the relative level of vascular endothelial growth factor (VEGF) gene expression was performed by quantitative PCR using a [sequence] […]
The relative level of 18S ribosomal RNA gene expression was measured as a control. Quantitative PCR was performed using a [sequence] […]
The test system of assay [3] is Wistar rats, toxic-ischemic liver injury. As to the kind of experiment: Toxic-ischemic liver injury (CCl4). It counts as in vivo, rat. Particulars: 9 weeks. The protocol: The model of toxic-ischemic liver injury was described in Bickel et al. (supra). Briefly, male Wistar rats (212-320 g) either received 1 ml/kg carbon tetrachloride (CCl4) in olive oil (1:1) by gavage twice weekly for nine weeks (n=140) or received no treatment (controls; n=10). Additionally, a group of animals receiving CCl4 (n=60) also received compound P. The compound was administered by intraperitoneal injection twice daily at 60 mg compound/2 ml saline/kg body weight. After 9 weeks, the animals were sacrificed and the liver was weighed. Bilirubin, alanine transaminase, alkaline phosphatase, albumin, and total bile acids in serum were determined using commercially available kits.

The test system is the same in assay [4]. Particulars: CCl4 + CPD, 9 weeks, 60 mg/kg intraperitoneal twice daily; cited from earlier work.
Assay [5] concerns Wistar rats, myocardial infarction. Particulars: one week after surgery. Here is the method:
Male Wistar rats (100-110 g), aged 4-5 weeks, were kept on a regular diet and a 12 hour day-night cycle. […] Animals were treated for two days prior to surgery and for one week following surgery. […] Ligation of the left anterior descending coronary artery was performed in artificially ventilated animals after left thoracotomy. Animals were sacrificed one week after surgery and echocardiography was performed. Fractional shortening, end-diastolic diameters, and end-systolic diameters were determined in a blinded fashion.

The subject of assay [6] is aldolase. Particulars: 293A cells.
Experimental: Alternatively, human cells derived from adenovirus-transformed fetal kidney epithelium (293A) were cultured in DMEM, 5% FBS, 1% Penicillin-Streptomycin at 37° C. and 10% CO2. […] Culture supernatant was then removed, the plates were placed on ice, lysis buffer (LB)-1 was added and the cells were harvested by scraping. The scraped cells were collected and incubated for 15 minutes on ice followed by centrifugation at 3000 g for 5 minutes at 4° C. The supernatant, which represents the cytosolic fraction, was collected and cytosolic proteins were separated under denaturing and reducing conditions using SDS polyacrylamide gels that were loaded with equal amounts of protein per lane.
Gel electrophoresis was conducted at 150 V for 2 hours, and after SDS-PAGE the proteins were transferred to a PVDF membrane for 1.5 hours at 400 mA at 4° C. The membrane was then incubated in blocking buffer, washed once with T-TBS, and then anti-aldolase antibody diluted to working concentration in blocking buffer was added and the blots were incubated over night with gentle agitation at 4° C. The membrane was then washed 4 times with T-TBS, followed by incubation for one hour at room temperature with blocking buffer containing labeled secondary antibody. The membrane was then washed four times with T-TBS. […]

In the case of `CC(C)Oc1ccc2nc(C(=O)NCC(=O)O)c(O)cc2c1` [Compound H, N-((3-hydroxy-6-isopropoxy-quinoline-2-carbonyl)-amino)-acetic acid], in assay [1], the “VEGF expression in conditioned media (FIG. 4A)” value (“VEGF expression … (FIG. 4A)” below) is “increase in VEGF expression”.

Take `O=[N+]([O-])c1ccnc2c(O)cccc12` [Compound E, 4-nitro-quinolin-8-ol]: the “VEGF expression in kidney (FIG. 6A)” value in assay [2] is given as “increased VEGF expression”.

In the case of `COc1ccc(CCN(CCC(=O)NO)S(=O)(=O)c2ccc(NC(=O)N(Cc3ccccc3)Cc3ccccc3)cc2)cc1` [Compound C, 3-{[4-(3,3-dibenzyl-ureido)-benzenesulfonyl]-[2-(4-methoxy-phenyl)-ethyl]-amino}-N-hydroxy-propionamide], in assay [1], the “VEGF expression … (FIG. 4A)” value was “increase in VEGF expression”.

Regarding `COC(=O)CNC(=O)c1nc(Cl)c2cc(OCc3ccccc3)ccc2c1O` [Compound K, ((7-benzyloxy-1-chloro-4-hydroxy-isoquinoline-3-carbonyl)-amino)-acetic acid methyl ester], the “VEGF expression … (FIG. 4A)” value in assay [1] was “increase in VEGF expression”.

With `COc1cccnc1C(=O)NCC(=O)O` [Compound P, [(3-methoxy-pyridine-2-carbonyl)-amino]-acetic acid], in assay [3], the “decrease in serum level of ALT in the treated group relative to the untreated group” value stood at 43%, the “decrease in serum level of AP in the treated group relative to the untreated group” value is recorded as 65%, the “decrease in serum level of BR in the treated group relative to the untreated group” value is reported as 64% and the “decrease in serum level of tBA in the treated group relative to the untreated group” value was 65%. In addition, in assay [4], the “ALT (serum alanine transaminase)” value is on record as 59.0 ± 29.5 U/L, the “AP (serum alkaline phosphatase)” value is on record as 195 ± 72.7 U/L, the “BR (serum bilirubin)” value is 2.83 ± 2.21 µmol/L and the “BW (body weight)” value was 373 ± 38.9 g. Also, in assay [4], the “tBA (serum total bile acids)” value is 40.8 ± 51.4 µmol/L.

As for `O=C(O)CNC(=O)c1nc(Cl)c2ccccc2c1O` [Compound B, N-((1-chloro-4-hydroxy-isoquinoline-3-carbonyl)-amino)-acetic acid], the “VEGF expression … (FIG. 4A)” value in assay [1] is given as “increase in VEGF expression”. Also, the “VEGF expression in kidney (FIG. 6A)” value in assay [2] was “increased VEGF expression”. Also, in assay [5], the “increase in end-diastolic diameter over sham operated animals” value stood at 18% and the “increase in left ventricular end-systolic diameter over sham operated animals” value was “no increase”. In addition, the “fractional shortening (FIG. 12A)” value in assay [5] (50 mg/kg oral gavage two times per day from two days prior to surgery) stood at 41%. In addition, in assay [6], the “expression of aldolase over time (FIG. 4B)” value is “increased expression of aldolase”.

With `O=C(O)CNC(=O)c1nc(Cl)c2cc(OCc3ccccc3)ccc2c1O` [Compound L, N-((7-benzyloxy-1-chloro-4-hydroxy-isoquinoline-3-carbonyl)-amino)-acetic acid], the “VEGF expression … (FIG. 4A)” value in assay [1] is recorded as “increase in VEGF expression”.

Take `COc1cc2cccnc2c2[nH]cc(C(=O)O)c(=O)c12` [Compound Q, 5-methoxy-4-oxo-1,4-dihydro-[1,10]phenanthroline-3-carboxylic acid]: the “VEGF expression … (FIG. 4A)” value in assay [1] is “increase in VEGF expression”.
